In PubChem BioAssay AID2060501 (Molecular Pharmacology Branch, DTP, NCI, 2025):

System: 282377-053-R-J1-PDC complex spheroids, viability
Assay: Anticancer human tumor 282377-053-R-J1-PDC patient-derived colon adenocarcinoma cell line growth inhibition [GQUAD]
Conditions: for IC50: curve of first compound; for viability, T/C: stronger effect = lower value
Procedure, shortened: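 Tumor cells were grown as complex spheroids with HUVEC endothelial cells and mesenchymal stem cells as stroma. G-quadruplex stabilizers were combined with targeted agents over half-log dilutions from near the clinical Cmax, or from 10 microM.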

[1] = second compound 0.0316 µM, first compound 0.0316 µM
[2] = second compound 0.0316 µM, first compound 0.1 µM
[3] = second compound 0.0316 µM, first compound 0.316 µM
[4] = second compound 0.0316 µM, first compound 1 µM
[5] = second compound 0.0316 µM, first compound 3.16 µM
[6] = second compound 0.0316 µM, first compound 10 µM
[7] = second compound 0.1 µM, first compound 0.0316 µM
[8] = second compound 0.1 µM, first compound 0.1 µM
[9] = second compound 0.1 µM, first compound 0.316 µM
[10] = second compound 0.1 µM, first compound 1 µM
[11] = second compound 0.1 µM, first compound 3.16 µM
[12] = second compound 0.1 µM, first compound 10 µM
[13] = second compound 0.316 µM, first compound 0.0316 µM
[14] = second compound 0.316 µM, first compound 0.1 µM
[15] = second compound 0.316 µM, first compound 0.316 µM
[16] = second compound 0.316 µM, first compound 1 µM
[17] = second compound 0.316 µM, first compound 3.16 µM
[18] = second compound 0.316 µM, first compound 10 µM
[19] = second compound 1 µM, first compound 0.0316 µM
[20] = second compound 1 µM, first compound 0.1 µM
[21] = second compound 1 µM, first compound 0.316 µM
[22] = second compound 1 µM, first compound 1 µM
[23] = second compound 1 µM, first compound 3.16 µM
[24] = second compound 1 µM, first compound 10 µM
[25] = second compound 3.16 µM, first compound 0.0316 µM
[26] = second compound 3.16 µM, first compound 0.1 µM
[27] = second compound 3.16 µM, first compound 0.316 µM
[28] = second compound 3.16 µM, first compound 1 µM
[29] = second compound 3.16 µM, first compound 3.16 µM
[30] = second compound 3.16 µM, first compound 10 µM
[31] = second compound 10 µM, first compound 0.0316 µM
[32] = second compound 10 µM, first compound 0.1 µM
[33] = second compound 10 µM, first compound 0.316 µM
[34] = second compound 10 µM, first compound 1 µM
[35] = second compound 10 µM, first compound 3.16 µM
[36] = second compound 10 µM, first compound 10 µM
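Note: spheroids exposed to compounds for 7 days before readout.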
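Throughout, for viability, T/C: percent of vehicle DMSO control viability with 100% = untreated-like growth.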

C#Cc1c(F)ccc2cc(O)cc(-c3ncc4c(N5CC6CCC(C5)N6)nc(OCC56CCCN5CC(F)C6)nc4c3F)c12 (stereo unspecified) + Cc1[nH]c2ccc(F)cc2c1-c1nc2c3cccnc3c3ncccc3c2[nH]1
IC50 (second compound 0.0316 µM): 1.89 µM
IC50 (second compound 0.1 µM): 1.28 µM
IC50 (second compound 0.316 µM): 1.37 µM
IC50 (second compound 1 µM): 0.825 µM
IC50 (second compound 3.16 µM): 0.0359 µM
IC50 (second compound 10 µM): < 0.0316 µM
viability, T/C [1]: 108%
viability, T/C [2]: 95.5%
viability, T/C [3]: 82.2%
viability, T/C [4]: 83.2%
viability, T/C [5]: 20.6%
viability, T/C [6]: 26%
viability, T/C [7]: 104%
viability, T/C [8]: 114%
viability, T/C [9]: 98.3%
viability, T/C [10]: 59.6%
viability, T/C [11]: 13.2%
viability, T/C [12]: 22.9%
viability, T/C [13]: 96.9%
viability, T/C [14]: 102%
viability, T/C [15]: 90.4%
viability, T/C [16]: 64.4%
viability, T/C [17]: 9.13%
viability, T/C [18]: 13.3%
viability, T/C [19]: 105%
viability, T/C [20]: 110%
viability, T/C [21]: 102%
viability, T/C [22]: 39.5%
viability, T/C [23]: 6.79%
viability, T/C [24]: 6.81%
viability, T/C [25]: 52.7%
viability, T/C [26]: 28.4%
viability, T/C [27]: 15.7%
viability, T/C [28]: 3.57%
viability, T/C [29]: 1.91%
viability, T/C [30]: 1.84%
viability, T/C [31]: 34.4%
viability, T/C [32]: 15.4%
viability, T/C [33]: 14.7%
viability, T/C [34]: 2.45%
viability, T/C [35]: 1.52%
viability, T/C [36]: 1.43%

CC(=O)O[C@H]1C(=O)[C@@]2(C)[C@H]([C@H](OC(=O)c3ccccc3)[C@]3(O)C[C@H](OC(=O)[C@H](O)[C@@H](NC(=O)c4ccccc4)c4ccccc4)C(C)=C1C3(C)C)[C@]1(OC(C)=O)CO[C@@H]1C[C@@H]2O + Cc1[nH]c2ccc(F)cc2c1-c1nc2c3cccnc3c3ncccc3c2[nH]1
IC50 (second compound 0.0316 µM): 0.519 µM
IC50 (second compound 0.1 µM): 0.584 µM
IC50 (second compound 0.316 µM): 0.519 µM
IC50 (second compound 1 µM): 0.617 µM
IC50 (second compound 3.16 µM): 0.424 µM
IC50 (second compound 10 µM): < 0.0316 µM
viability, T/C [1]: 115%
viability, T/C [2]: 112%
viability, T/C [3]: 84.6%
viability, T/C [4]: 4.01%
viability, T/C [5]: 0.1%
viability, T/C [6]: 0.12%
viability, T/C [7]: 108%
viability, T/C [8]: 107%
viability, T/C [9]: 106%
viability, T/C [10]: 3.64%
viability, T/C [11]: 0.06%
viability, T/C [12]: 0.09%
viability, T/C [13]: 107%
viability, T/C [14]: 111%
viability, T/C [15]: 79.5%
viability, T/C [16]: 10.8%
viability, T/C [17]: 0.05%
viability, T/C [18]: 0.21%
viability, T/C [19]: 116%
viability, T/C [20]: 90.3%
viability, T/C [21]: 110%
viability, T/C [22]: 9.92%
viability, T/C [23]: 0.04%
viability, T/C [24]: 0.07%
viability, T/C [25]: 92.8%
viability, T/C [26]: 109%
viability, T/C [27]: 66%
viability, T/C [28]: 4.89%
viability, T/C [29]: 0.11%
viability, T/C [30]: 0.1%
viability, T/C [31]: 36.7%
viability, T/C [32]: 43.9%
viability, T/C [33]: 59.1%
viability, T/C [34]: 10.1%
viability, T/C [35]: 0.17%
viability, T/C [36]: 0.46%

CCCS(=O)(=O)Nc1ccc(F)c(C(=O)c2c[nH]c3ncc(-c4ccc(Cl)cc4)cc23)c1F + Cc1[nH]c2ccc(F)cc2c1-c1nc2c3cccnc3c3ncccc3c2[nH]1
IC50 (second compound 0.0316 µM): 2.21 µM
IC50 (second compound 0.1 µM): 2.13 µM
IC50 (second compound 0.316 µM): 2.15 µM
IC50 (second compound 1 µM): 2.04 µM
IC50 (second compound 3.16 µM): 0.781 µM
IC50 (second compound 10 µM): < 0.0316 µM
viability, T/C [1]: 95.9%
viability, T/C [2]: 90.4%
viability, T/C [3]: 95.1%
viability, T/C [4]: 92.5%
viability, T/C [5]: 30.9%
viability, T/C [6]: 14.5%
viability, T/C [7]: 130%
viability, T/C [8]: 114%
viability, T/C [9]: 89%
viability, T/C [10]: 81.2%
viability, T/C [11]: 31.7%
viability, T/C [12]: 13.2%
viability, T/C [13]: 96.4%
viability, T/C [14]: 83.7%
viability, T/C [15]: 81.8%
viability, T/C [16]: 91.4%
viability, T/C [17]: 30.5%
viability, T/C [18]: 16.1%
viability, T/C [19]: 108%
viability, T/C [20]: 120%
viability, T/C [21]: 74.3%
viability, T/C [22]: 93.2%
viability, T/C [23]: 23.9%
viability, T/C [24]: 11.8%
viability, T/C [25]: 89.2%
viability, T/C [26]: 66.7%
viability, T/C [27]: 71.9%
viability, T/C [28]: 45.3%
viability, T/C [29]: 9.06%
viability, T/C [30]: 6.19%
viability, T/C [31]: 33.6%
viability, T/C [32]: 31.9%
viability, T/C [33]: 23.1%
viability, T/C [34]: 22.8%
viability, T/C [35]: 3.93%
viability, T/C [36]: 4.48%
